Results reported in patent publication US20080096922A1, “Novel Sulfonamide derivative” (Dainippon Sumitomo Pharma Co., Ltd., priority 2004, published 2008).

Assays:
[1] = test system: LDL receptor protein; test: Measurement of an expression of a LDL receptor (immunoblotting, HepG2); type: cell-based, human; details: HepG2 cell, test compound at 0.1 and 1 μM, compared to a control group
Protocol: The activity of potentiating an expression of a LDL receptor by the test compounds were measured using a human hepatic cell line HepG2. Cells were seeded in a 6 well plate at the density of 7.5×10^5 cells/well (at first day). On third days, the medium was changed to a medium containing lipoprotein-deficient serum and the test compound. On forth days, the cells were scraped and collected by a centrifugation. The recovered cells were dissolved in a cell lysate buffer containing 0.1% TritonX-100 and after centrifugation, the supernatant was used as a solution of cell protein. The amount of the LDL-R protein was evaluated by an immunoblotting method using the above-prepared solution of cell protein.
After treating the HepG2 cell with the compound of Example 1-2, the amount of LDL receptor protein was detected by an immunoblotting method.

[2] = test system: LDL receptor; test: Effects on an activity of a LDL receptor: uptake amount of DiI-LDL into HepG2 cell; type: cell-based, human; details: 10 μM, control group as 100%
Protocol: The 1,1′-dioctadecyl-3,3,3′,3′-tetramethylindocarbocyanine perchlorate (DiI)-labeled LDL (DiI-LDL) was prepared as follows. That is, a DiI (Invitrogen Corp., U.S.A) was mixed with a human LDL (Chemicon International, Inc., U.S.A) and the mixture was incubated at 37° C. for 8 hours. […] After centrifugation, the DiI-labeled LDL fraction was separated and dialyzed with a physiological saline to prepare the above desired solution.
The effects on a LDL receptor activity were determined as the uptake amount of DiI-LDL into HepG2 cell. The cultured human hepatic cell line HepG2 cell was purchased from the Dainippon Pharmaceuticals Co. Ltd. (Osaka, Japan). The HepG2 cells were seeded in a 96 well plate and were incubated in the Dulbecco's modified Eagle/F-12 (DMEM/F-12) medium containing 10% fetal bovine serum and antibiotics in a CO2 incubator at 37° C. for two to three days. After washing the cells, a DMEM/F-12 medium containing 5-10% lipoprotein-deficient serum, the test substrate and the antibiotics were added thereto and the cells were incubated at 37° C. for 19 hours. After adding DiI-LDL, the cells were incubated in a CO2 incubator at 37° C. for another 5 hours. The uptake amount of non-specific DiI-LDL was measured by adding 30 to 50 folds amount of the non-labeled LDL. After washing the cells with Dulbecco's phosphate buffer (Sigma Corp., U.S.A.), the Dulbecco's phosphate buffer was added to each well and then the uptake amount of DiI-LDL into the cell line were measured as the value of fluorescence. After measuring the fluorescence, the Dulbecco's phosphate buffer was removed and thereto was added 1N sodium hydroxide solution to dissolve the cells and the amount of protein was measured by using a part of the resulting solution. The effect on a LDL receptor activity by each compound was determined by calculating the ratio of the amount of fluorescence/the amount of protein, and by subtracting the non-specific uptake amount therefrom and then calculating the control group as 100%.

Row | Compound | amount of a LDL receptor protein [1] | Activity of (%) LDL receptor [2] [%]
1 | COc1cccc(C2(C(=O)NS(=O)(=O)Oc3c(C(C)C)cccc3C(C)C)CCN(c3ccccc3OC)CC2)c1 [Example 1-2, 2,6-diisopropylphenyl {[1-(2-methoxyphenyl)-4-(3-methoxyphenyl)piperidin-4-yl]carbonyl}sulfamate] | superior increasing effect | 124
2 | COc1cccc([C@]2(CNS(C)(=O)=O)CC[C@@H](NC3CCN(Cc4ccc(NC(C)=O)cc4)CC3)CC2)c1 [Example 15-1, N-[4-({4-[(cis-4-(3-methoxyphenyl)-4-{[(methylsulfonyl)-amino]methyl}cyclohexyl)amino]piperidin-1-yl}methyl)phenyl]acetamide] | – | 192
3 | COc1cccc(C2(CNS(=O)(=O)c3ccc(C)cc3)CCN(C(c3ccccc3)c3ccccc3)CC2)c1 [Example 36, N-{[1-(diphenylmethyl)-4-(3-methoxyphenyl)piperidin-4-yl]methyl}-4-methylbenzenesulfonamide] | – | 122
